Test results from publication PMC6599521 (Biochemical pharmacology, 2019).
Read-outs that look alike come from different tables or passages of the source.

Legend:
murine HCN1 channels = murine HCN1 channels (Mus musculus, UniProt O88704); format: cell-based; conditions: for Inverse agonist behavior on HCN1 gating (in words): ligand alone; for IC50 (in words): no clear inflection in the concentration response curve, omitted from Figure 4B; for ΔV1/2: paired experiments
HCN1 channels [1] = target: T1, HCN1 channels (Mus musculus, UniProt O88704); test: Additivity/competition of ligands with 3 μM DTB-P on HCN1 gating; format: cell-based, murine; conditions: increasing ligand concentrations plus 3 μM DTB-P
T1 sequence (O88704 whole entry): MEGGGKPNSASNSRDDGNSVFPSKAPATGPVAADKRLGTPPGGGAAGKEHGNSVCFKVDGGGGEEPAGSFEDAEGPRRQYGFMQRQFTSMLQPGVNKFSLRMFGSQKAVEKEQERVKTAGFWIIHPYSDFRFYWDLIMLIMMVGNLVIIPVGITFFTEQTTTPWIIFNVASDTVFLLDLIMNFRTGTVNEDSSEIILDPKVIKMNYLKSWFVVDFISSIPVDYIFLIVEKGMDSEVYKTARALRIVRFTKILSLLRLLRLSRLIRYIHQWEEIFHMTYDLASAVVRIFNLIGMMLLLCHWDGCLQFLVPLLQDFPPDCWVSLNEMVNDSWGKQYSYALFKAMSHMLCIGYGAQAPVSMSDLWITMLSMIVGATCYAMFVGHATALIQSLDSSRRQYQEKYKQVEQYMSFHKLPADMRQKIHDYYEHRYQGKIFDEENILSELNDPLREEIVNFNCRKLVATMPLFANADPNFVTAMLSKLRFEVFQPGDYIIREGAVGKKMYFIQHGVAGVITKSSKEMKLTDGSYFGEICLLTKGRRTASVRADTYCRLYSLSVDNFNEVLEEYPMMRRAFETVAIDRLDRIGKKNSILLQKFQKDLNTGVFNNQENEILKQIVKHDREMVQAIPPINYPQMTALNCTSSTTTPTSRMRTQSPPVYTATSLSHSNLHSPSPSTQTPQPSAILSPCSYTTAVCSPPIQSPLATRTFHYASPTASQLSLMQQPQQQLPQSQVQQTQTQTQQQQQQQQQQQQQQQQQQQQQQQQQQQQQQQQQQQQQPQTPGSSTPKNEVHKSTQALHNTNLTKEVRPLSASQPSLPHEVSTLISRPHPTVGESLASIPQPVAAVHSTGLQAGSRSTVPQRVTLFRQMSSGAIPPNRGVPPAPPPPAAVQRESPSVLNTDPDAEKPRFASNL

[2] = cited from earlier work
HCN1 channels [3] = target: T1, HCN1 channels; test: Gating model; format: cell-based, murine; conditions: for Fold Change of closed state association constant, phenol vs cyclohexanol / Fold Change of open state association constant, phenol vs cyclohexanol / Association constant to closed channels (KC, QC, JC) / Association constant to open channels (KO, QO, JO): common site model S=4; for Association constant to closed channels (KC, QC, JC) / Association constant to open channels (KO, QO, JO): constants and errors divided by 10^4
[4] = system: G-protein coupled inwardly rectifying K+ channels (GIRKs); conditions: in vitro; cited from earlier work
[5] = system: chimeric mu opiate (μOR-Gqi5) receptors; conditions: up to 100 μM; cited from earlier work
[6] = system: mouse peripheral nerve injury neuropathic pain models; conditions: cited from earlier work
α3β glycine receptors = conditions: cited from earlier work
GABAA receptors = conditions: cited from earlier work
[7] = Hill fit maximal shift of activation midpoint, mean ± SD

Chain of murine HCN1 channels (O88704 whole entry): as above

CCC1CCCC(CC)C1O (stereo not drawn) [DE-CH, 2,6-di-ethyl cyclohexanol]
IC50 (murine HCN1 channels): 3000 ± 723 µM | Inverse agonist behavior on HCN1 gating (in words) (murine HCN1 channels): only weakly effective as an inverse agonist | IC50 (in words) (murine HCN1 channels): ill-defined | Behavior in the presence of 3 μM DTB-P (in words) (HCN1 channels [1]): neither additivity nor competition

CCc1cccc(CC)c1O [DE-P, 2,6-di-ethyl phenol]
Maximal efficacy lower than the maximal effect of DIP-P and DTB-P (murine HCN1 channels): ~ 2 fold | ΔV1/2 (murine HCN1 channels; 100 μM, n = 8): −21.6 mV | ΔV1/2 (murine HCN1 channels; 300 μM, n = 9): −21.2 mV | ΔV1/2 max (murine HCN1 channels; [7]): −22.1 ± 1.0 mV | h (Hill coefficient) (murine HCN1 channels; Hill fit, mean ± SD): 1.95 ± 0.44 | IC50 (murine HCN1 channels; IC50, Hill fit of ΔV1/2 vs concentration, all parameters free, mean ± SD): 25.1 ± 2.7 µM | Inverse agonist behavior on HCN1 gating (in words) (murine HCN1 channels): partial inverse agonist | Aqueous solubility limit ([2]; ref https://comptox.epa.gov/dashboard DTXSID5061401): ~ 10 mM

CCc1cccc(CC)c1N=C=O [DE-PIC, 2,6-diethyl phenyl-isocyanate]
Inverse agonist behavior on HCN1 gating (in words) (murine HCN1 channels): effective

CC(C)C1CCCC(C(C)C)C1O (stereo not drawn) [DIP-CH, 2,6-di-iso-propyl cyclohexanol]
IC50 (murine HCN1 channels): 35 ± 21 µM | ΔV1/2 max (murine HCN1 channels; [7]): −18.9 ± 3.4 mV | h (Hill coefficient) (murine HCN1 channels; Hill fit, mean ± SD): 0.76 ± 0.19 | Behavior in the presence of 3 μM DTB-P (in words) (HCN1 channels [1]): partial inverse agonists | Fold Change of closed state association constant, phenol vs cyclohexanol (HCN1 channels [3]): 3.8 | Fold Change of open state association constant, phenol vs cyclohexanol (HCN1 channels [3]): 1.8

CC(C)c1cccc(C(C)C)c1O [DIP-P, 2,6-di-iso-propyl phenol, reference compound]
Direct effect on GIRKs [4]: no direct effect | Shift in the V1/2 of HCN1 gating (murine HCN1 channels): ~ −40 mV | h (Hill coefficient) (murine HCN1 channels): 0.85 ± 0.11 | ΔV1/2 max (murine HCN1 channels): −39.8 ± 2.3 mV | IC50 (murine HCN1 channels; IC50): 5.8 ± 1.2 µM | Effect on DAMGO-evoked currents generated by μOR-Gqi5 receptors [5]: inhibit | Increase of solubility by 2-hydroxypropyl-β-cyclodextrin (HPβCD) [2]: ≥ 200 fold | Behavior in the presence of 3 μM DTB-P (in words) (HCN1 channels [1]): second full inverse | Anti-hyperalgesia [6]: mechanical and thermal anti-hyperalgesia

CC(C)c1cccc(C(C)C)c1F [DIP-PF, 2,6-di-iso-propyl phenyl-fluorine]
IC50 (murine HCN1 channels): 267 ± 24 µM | Destabilization of association on replacing OH with F (murine HCN1 channels; from observed IC50 ratio): 9.62 kJ/mol | Destabilization of association on replacing OH with F (murine HCN1 channels; from partition-corrected IC50 ratio): 18.8 kJ/mol | Shift in IC50 on replacing OH with F (murine HCN1 channels; ratio of observed aqueous IC50s of DIP-P and DIP-PF): 46 fold | Shift in IC50 on replacing OH with F (murine HCN1 channels; ratio of partition-corrected IC50s of DIP-P and DIP-PF): 1,870 fold

CC1CCCC(C)C1O (stereo not drawn) [DM-CH, 2,6-di-methyl cyclohexanol]
IC50 (in words) (murine HCN1 channels): ill-defined

Cc1cccc(C)c1O [DM-P, 2,6-di-methyl phenol]
Inverse agonist behavior on HCN1 gating (in words) (murine HCN1 channels): ineffective | IC50 (in words) (murine HCN1 channels): ill-defined

Cc1cccc(C)c1N=C=O [DM-PIC, 2,6-di-methyl phenyl-isocyanate]
Inverse agonist behavior on HCN1 gating (in words) (murine HCN1 channels): ineffective | IC50 (in words) (murine HCN1 channels): ill-defined

Cc1cccc(C)c1S [DM-PT, 2,6-di-methyl phenyl-thiol]
Inverse agonist behavior on HCN1 gating (in words) (murine HCN1 channels): clear inverse agonist activity

CCC(C)C1CCCC(C(C)CC)C1O (stereo not drawn) [DSB-CH, 2,6-di-sec-butyl cyclohexanol]
IC50 (in words) (murine HCN1 channels): ill-defined | Association constant to closed channels (KC, QC, JC) (HCN1 channels [3]): no effect | Association constant to open channels (KO, QO, JO) (HCN1 channels [3]): no effect

CCC(C)c1cccc(C(C)CC)c1O (stereo not drawn) [DSB-P, 2,6-di-sec-butyl phenol]
Behavior in the presence of 3 μM DTB-P (in words) (HCN1 channels [1]): low affinity full inverse agonist | Jc^I closed state association constant (HCN1 channels [3]; common site model S=4, fit of data without and with 3 μM DTB-P, not scaled): 3,696 ± 2,948

CC(C)(C)C1CCCC(C(C)(C)C)C1O (stereo not drawn) [DTB-CH, 2,6-di-tert-butyl cycloxhexanol]
ΔV1/2 max (murine HCN1 channels; [7]): −9.9 ± 1.5 mV | IC50 (murine HCN1 channels; Hill fit of ΔV1/2 vs concentration, all parameters free, mean ± SD): 11.4 ± 4.2 µM | h (Hill coefficient) (murine HCN1 channels; Hill fit, mean ± SD): 1.28 ± 0.47 | Behavior in the presence of 3 μM DTB-P (in words) (HCN1 channels [1]): partial inverse agonists | Fold Change of closed state association constant, phenol vs cyclohexanol (HCN1 channels [3]): 5.4 | Fold Change of open state association constant, phenol vs cyclohexanol (HCN1 channels [3]): 1.8 | Association constant to closed channels (KC, QC, JC) (HCN1 channels [3]): 4.6 ± 2.0 | Association constant to open channels (KO, QO, JO) (HCN1 channels [3]): 3.1 ± 1.5

CC(C)(C)c1cccc(C(C)(C)C)c1O [DTB-P, 2,6-di-tert-butyl phenol]
IC50 (murine HCN1 channels): 4.8 ± 0.8 µM | ΔV1/2 max (murine HCN1 channels; [7]): −42.4 ± 2.8 mV | h (Hill coefficient) (murine HCN1 channels; Hill fit, mean ± SD): 0.97 ± 0.13 | Shift in the V1/2 of HCN1 gating (murine HCN1 channels; at the highest concentrations): ~ −40 mV | Effect on open channel probability (Po) of α3β glycine receptors (α3β glycine receptors): increases open channel probability | Increase of solubility by 2-hydroxypropyl-β-cyclodextrin (HPβCD) [2]: ≥ 200 fold | Activity at GABAA receptors (GABAA receptors): minimal activity | Anti-hyperalgesia [6]: mechanical and thermal anti-hyperalgesia
